“Also recorded” adds a separate entry of the source.
Assays:
[1] = system: A549 human pulmonary cancer cells; experiment: MTT test, proliferation of A549; type: cell-based; details: MTT test
[2] = system: human mammary tumoral lineage T-47D; experiment: Clonogenic test (soft agar), growth of cellular colonies; type: cell-based; details: T-47D, soft agar
From the text: The human tumour stem cells are the clonogenic cells which are the origin of the neoplasic cells which constitute a given tumour. These tumour stem cells are responsible for the recidivism process observable after surgical resection of the primary tumours and are also responsible for the formation of metastases. […] At the level of a tumour or of a tumoral cellular lineage, these clonogenic stem cells distinguish themselves from other clonogenic cells of the tumour or of the neoplasic cellular lineage being considered, by the fact that they preserve their ability to proliferate in the absence of any solid support.
This technique is suitable for the culturing in vitro of most of the tumours and tumoral cellular lineages of various histological types. In the context of this test, the neoplastic cells are cultured on a semi-solid culture medium "soft agar" made up of a mixture of agar and agarose. On this selective support, only tumoral stem cells survive and proliferate. […] The morphological characteristics and the growth of the cellular colonies are also a function of the histological type of the tumours being considered.
These culture conditions are also called "anchorage-independent" conditions.
The base medium "MEM 25 MM HEPES" (Minimum Essential Medium, Life Technologies, Belgium) contains Eagle salts but no L-glutamine. This medium is well suited to the growth of a range of varied diploid cells or primary mammal cells. To this medium is then added:
The tumoral cells are maintained in culture in 25 cm^2 falcon dishes (Life Technologies, Belgium). They are then trypsinised and individualised. Their rate of viability is determined by coloration with trypan blue (Sigma, Belgium). It must be greater than 90%. In the case where this condition is kept to, a cellular suspension at the desired concentration is prepared in a solution of agar at 0. 3%. The cells are then seeded between two layers of agar (Sigma, Belgium) and in 35 mm Petri dishes (Life Technologies, Belgium). The base layer is made up of a 0.5% solution of agar and the top layer is made up of a 0.3% solution of agar. The cupules are then positioned and held in an incubator at 37° C. and 5% of CO2. […] After treatment, the cupules are kept in the incubator for 21 days. It is advisable to examine, during the course of the experiment, the appearance and the increase of the cellular colonies. If after 10 days, no colony appears or is developing, the experiment must be repeated. In the contrary case, on the 21st day, 100 μl of an MTT solution (3-(4,5-dimethylthiazol-2-yl)-2,5 diphenyl tetrazolium bromide; Sigma, Belgium) dissolved in the RPMI culture medium (Roswell park Memorial Institute, Life Technologies, Belgium), at the concentration of 1 mg/ml are deposited on the top layer of the group of cupules. The cells are kept in contact with this solution for a minimum of 3 hours at 37° C.
Using an inverted microscope at low magnification, the number of clones whose surface area is greater thar. 100 μm^2 is determined for the group of cupules representing all the different experimental conditions. Then, for each of these experimental conditions, the mean number of cellular colonies±the standard error on the mean (ESM) is calculated.
The mean number of cellular colonies determined for each experimental condition is expressed as a percentage in relation to the control condition made equal to 100%.

[3] = system: Gal4-RARβ; experiment: Transactivation, chimerical receptor Gal4-RARβ (transitory transfection of HeLa); type: cell-based; details: 100% = TTNPB 10^-8 M
[4] = system: Gal4-RARγ; experiment: Transactivation, chimerical receptor Gal4-RARγ (transitory transfection of HeLa); type: cell-based; details: 100% = TTNPB 10^-8 M
[5] = system: RARβ-ERcassette; experiment: Transactivation, chimerical receptor RARβ-ERcassette (HeLa); type: cell-based; details: TTNPB 10^-8 M = 100
From the text: (§1) The HeLa cells are co-transfected by a plasmid which codes for a retinoic receptor in which the C domain of bonding to the DNA is substituted by that of the receptor to RE oestrogens, and a plasmid which places the expression of the luciferase under the control of an ERE (Element of Response to Oestrogens). The expressed chimerical receptors are designated as RARα-ERcassette, RARβ-ERcassette, RARγ-ERcassette and RXRα-ERcassette. The A, B, D, E and F regions of the natural receptor are preserved as well as the transcriptional co-operation between the activation domains AF-1 and AF-2. These transitory transfection experiments follow the method of co-precipitation to calcium phosphate. The HeLa cells are co-transfected by […] of plasmid coding for the chimerical receptor, […] of reporter plasmid and […] of expression vector CMV-β-galactosidase used as an internal control of transfection. 24 hours after the transfection, the cells are incubated for 16 hours with the different effectors.
(§2) In this type of chimerical receptor, the C domain of bonding to the DNA of RAR is substituted by that of the receptor to the RE oestrogens. The protein obtained is close to the natural RAR receptor and preserves the transcriptional properties of the AF-1 and AF-2 domains. It modulates the transcription by means of an ERE. This RAR-ERcassette model allows one to observe a transcriptional response to a more physiological ligand.

[6] = system: T-47D cells; experiment: Effect on oestrogen-induced proliferation of T-47D cells; type: cell-based, human; details: estradiol 10^-9 M
Procedure: (§3) MCF-7 cells and HeLa are cultivated in DMFM with phenol red to which 5% foetal calf serum is added. The T47-D cells are cultivated in RPMI to which 10% foetal calf serum is added. The experimental tests are carried out in DMEM without phenol red to which foetal calf serum treated with dextran carbon is added at 3%. […] The experiments using the different retinoids are carried out sheltered from the light so as to avoid any isomerisation.
So as to test the anti-proliferation effect of the retinoids, growth experiments under oestrogenic conditions were carried out on cells MCF-7 and T-47D. These are the human oestrogen-dependent mammary cancer cells which express the receptor to RE oestrogens. The effect of the molecules is evaluated after 7 days of culture in oestrogenic conditions (estradiol 10^-9 M) by dosing the cellular DNA. The cells are distributed in 24 well plates at a density of 2×10^4 cells per well. The tests with the different retinoids are carried out in triplicate and the culture medium is changed after 4 days of growth.

[7] = system: MCF-7 cells; experiment: Effect on oestrogen-induced proliferation of MCF-7 cells; type: cell-based, human; details: estradiol 10^-9 M
Procedure: MCF-7 cells and HeLa are cultivated in DMFM with phenol red to which 5% foetal calf serum is added. […] The experimental tests are carried out in DMEM without phenol red to which foetal calf serum treated with dextran carbon is added at 3%. […] The experiments using the different retinoids are carried out sheltered from the light so as to avoid any isomerisation.

[8] = system: RARE, endogenic RAR and RXR receptors, HRL+N lineage; experiment: HRL+N transactivation (RARE-luciferase, stably transfected HeLa); type: cell-based
Procedure: as §3
(§4) Certain properties of the retinoids have been determined using more developed cellular models. These models consist of cellular lineages transfected in a stable fashion by recombinant plasmids which place the expression of the gene of the luciferase under the control of different nuclear response elements. […] The tests carried out in duplicate are described below for each of these models.
The cellular lineages HRLN and HRL+N allow one to study the activation of an RARE by endogenic receptors using ligands at physiological concentrations. These lineages derive from HeLa cells transfected in a stable fashion by a reporter gene which places the expression of the gene of the luciferase under the control of a nuclear response element RARE (RARE3 -tk-Luc). The HeLa cells express all the known receptors of the retinoic acid (RARα,β,γ and RXRα,β,γ) with a predominance of RARα and RXRα. The response element RARE used for the HRLN cells corresponds to the sequence of the natural gene of the RARβ receptor (GGTTCAnnnnnAGTTCA). The HRL+N cells comprise the sequence GAGTGAnnnnnCGGTGA.
The HRL+N lineage allows one to visualise a co-activation of the RAR and RXR receptors at the level of the RAR-RXR hetero-dimer.

[9] = system: AP-1, MTLN lineage (MCF-7); experiment: Anti-AP-1 effect, MTLN lineage activated by TPA; type: cell-based, human; details: TPA-activated MTLN cells
Procedure: as §4
The anti-factor AP-1 transrepressor effect of retinoids is determined using the MTLN lineage, coming from MCF-7 cells transfected in a stable fashion by a vector p(TRE)3 -tk-Luc which places the expression of the gene of luciferase under the control of […]. TPA activates the AP-1 complex formed from proteins of the family of nuclear proto-oncogenes (c-Jun and c-Fos). […] The experiments are made with the MTLN cells activated by 10^-7 M TPA.
The effect of the compounds on the MTLN cells activated by 10^-7 M TPA is expressed as a percentage. […] The inhibitive properties of the products are calculated after deduction of the base activity of the cells. The percentages reported correspond to a range of inhibitions determined from several experiments.

[10] = system: RAR-ERcassettes (RARα, RARβ, RARγ); experiment: Chimerical receptors RAR-ERcassettes, overall profile; type: cell-based
From the text: as §1, §2

Q: What does the source list for C=C(c1ccc(C(=O)O)cc1)c1cc2c(cc1C)C(C)(C)CCC2(C)C [LGD1069, reference compound]?
A: effect on cellular increase, A549 (in words) [1]: induces a stimulation of the proliferation of the A549 cells at 10^-6 M and 10^-8 M; effect on growth of cellular colonies (in words) [2]: strongly and significantly inhibits the growth of cellular colonies of the T-47D lineage; GAL4-RAR RARβ transactivation ([3]; 10^-7 M): 5%; GAL4-RAR RARβ transactivation ([3]; 10^-8 M): 1%; GAL4-RAR RARγ transactivation ([4]; 10^-6 M): 29%; GAL4-RAR RARγ transactivation ([4]; 10^-7 M): 8%; GAL4-RAR RARγ transactivation ([4]; 10^-8 M): 1%; RAR-ERcassette RARβ transactivation ([5]; 10^-6 M): 237%; RAR-ERcassette RARβ transactivation ([5]; 10^-7 M): 194%; effect on oestrogen-induced growth, T-47D (in words) [6]: exerts no effect whatsoever on the growth of MCF-7 and T-47D cells in oestrogenic conditions; effect on oestrogen-induced growth, MCF-7 (in words) [7]: exerts no effect whatsoever on the growth of MCF-7 and T-47D cells in oestrogenic conditions; HRL+N transactivation (in words) [8]: induce a stronger transactivation with the HRL+N cells; also recorded: behaves as a panagonistic molecule; anti-AP-1 effect (in words) [9]: causes an inhibition of the AP-1 route; also recorded: the most effective compound tested in this model; RAR-ERcassette profile (in words) [10]: transcriptional power appears higher notably through the RARβ-ERcassette; also recorded: permits a co-activation of RAR and RXR, bringing about an over-activation of the hetero-dimer in comparison with the specific RAR activation of TTNPB

Reference: patent US6265423A, “Aromatic polycyclic retinoid-type derivatives, method for preparing same, and use thereof for making pharmaceutical and cosmetic compositions” (priority 1996, dated 2001)
